Results published in ChEMBL document CHEMBL1123884, “Preparation and antileukemic screening of some new 6'-deoxyhexopyranosyladenine nucleosides” (J Med Chem, 1987).

Assays:
L1210 [1] = assay: Antileukemic activity against L1210 cells in culture at a concentration of 10e-4 M; Inactive; assay type: functional, cell-based, Mus musculus
L1210 [2] = assay: Antileukemic activity against L1210 cells in culture at a concentration of 5 X 10e-4 M; extremely weak; assay type: functional, cell-based; settings: Mus musculus
L1210 [3] = assay: Antileukemic activity against L1210 cells in culture at a concentration of 10e-4 M; Active; assay type: functional, cell-based, Mus musculus

SMILES | IC50 (L1210 [1]) | further results
C[C@@H]1O[C@@H](n2cnc3c(N)ncnc32)[C@H](O)[C@H](O)[C@@H]1O | Not Active | –
Nc1ncnc2c1ncn2C1OCC(O)C(O)C1O (stereo unspecified) | – | inhibition (L1210 [2]): Extremely weak
C[C@H]1O[C@@H](n2cnc3c(N)ncnc32)[C@H](O)[C@@H](O)[C@H]1O | – | IC50 (L1210 [3]): Active
C[C@H]1O[C@@H](n2cnc3c(N)ncnc32)[C@H](O)[C@@H](O)[C@@H]1O | Not Active | –
C[C@@H]1O[C@@](CO)(n2cnc3c(N)ncnc32)[C@@H](O)[C@@H]1O | Not Active | –
Nc1ncnc2c1ncn2C1OC(CO)C(O)C(O)C1O (stereo unspecified) | Not Active | –
